Reference: US10960004B2, “Method for treating cancer patients with severe renal impairment” (TAIHO PHARMACEUTICAL CO., LTD., priority 2016, dated 2021)
Read-outs that look alike come from different tables or passages of the source.

Test: Pharmacokinetics of FTD and TPI in plasma of solid cancer patients given FTD/TPI combination drug, by renal function cohort
Assay type: in vivo, human
Details: for CL/F / Cmax / half-life / AUC(0-t): 35 mg/m^2 per once as FTD, oral, twice a day, plasma, mean; for Cmax / half-life / AUC(0-t): human, po; for AUC(0-t): read-out: AUC0-12; for AUC0-12 higher as compared to patients with normal renal function: after repeated administrations, 35 mg/m^2
Procedure: Pharmacokinetic of FTD was studied in patients with solid cancer including colorectal cancer, when performing a treatment of repeating an administration schedule of orally administering an FTD/TPI combination drug (mixture of FTD and TPI in a molar ratio of 1:0.5) in 35 mg/m^2 per once (as FTD, the same applies hereinafter) for 5 consecutive days twice a day, followed by rest for 2 days twice, followed by rest for 14 days, and repeating this procedure as one cycle. […] Blood collection was performed after administration of the FTD/TPI combination drug on Day 1 and Day 12, at predose and at 0.5, 1, 2, 4, 6, 8, 10, 12 hours after administration, and FTD and TPI concentrations in plasma were measured. Pharmacokinetic parameters of FTD and TPI were calculated using the resulting concentrations in the plasma, and the results were shown in Table 1.

[1] = Day 1, Cohort 0: normal renal function
[2] = Day 1, Cohort 1: mild renal impairment (CLcr 60 to 89 mL/min)
[3] = Day 1, Cohort 2: moderate renal impairment (CLcr 30 to 59 mL/min)
[4] = Day 12, Cohort 0: normal renal function
[5] = Day 12, Cohort 1: mild renal impairment (CLcr 60 to 89 mL/min)
[6] = Day 12, Cohort 2: moderate renal impairment (CLcr 30 to 59 mL/min)
[7] = 35 mg/m2, Day 1, Cohort 0: normal renal function
[8] = 35 mg/m2, Day 1, Cohort 1: mild renal impairment (CLcr 60 to 89 mL/min)
[9] = 35 mg/m2, Day 1, Cohort 2: moderate renal impairment (CLcr 30 to 59 mL/min)
[10] = 35 mg/m2, Day 12, Cohort 0: normal renal function
[11] = 35 mg/m2, Day 12, Cohort 1: mild renal impairment (CLcr 60 to 89 mL/min)
[12] = 35 mg/m2, Day 12, Cohort 2: moderate renal impairment (CLcr 30 to 59 mL/min)

SMILES | CL/F [1] | CL/F [2] | CL/F [3] | CL/F [4] | CL/F [5] | CL/F [6] | Cmax [7] | half-life [7] | AUC(0-t) [7] | Cmax [8] | half-life [8] | AUC(0-t) [8] | Cmax [9] | half-life [9] | AUC(0-t) [9] | Cmax [10] | half-life [10] | AUC(0-t) [10] | Cmax [11] | half-life [11] | also measured
O=c1[nH]c(=O)n([C@H]2C[C@H](O)[C@@H](CO)O2)cc1C(F)(F)F [FTD, α,α,α-trifluorothymidine] | 8.72 L/h | 10.08 L/h | 9.17 L/h | 3.29 L/h | 4.1 L/h | 2.1 L/h | 2880 ng/mL | 75.6 min | 7870 ng·h/mL | 3160 ng/mL | 107 min | 7290 ng·h/mL | 2760 ng/mL | 114 min | 8140 ng·h/mL | 5240 ng/mL | 125 min | 20100 ng·h/mL | 4670 ng/mL | 144 min | AUC(0-t) [11]: 23400 ng·h/mL; Cmax [12]: 6010 ng/mL; half-life [12]: 193 min; AUC(0-t) [12]: 30400 ng·h/mL; AUC0-12 higher as compared to patients with normal renal function (patients with mild renal impairment (Cohort 1)): about 16%; AUC0-12 higher as compared to patients with normal renal function (patients with moderate renal impairment (Cohort 2)): about 51%
Cl.N=C1CCCN1Cc1[nH]c(=O)[nH]c(=O)c1Cl [TPI, 5-chloro-6-[(2-iminopyrrolidine-1-yl)methyl]pyrimidine-2,4(1H,3H)-dione hydrochloride] | 148.5 L/h | 105.1 L/h | 64.8 L/h | 128.3 L/h | 83.1 L/h | 62 L/h | 46.5 ng/mL | 122 min | 234 ng·h/mL | 93.9 ng/mL | 140 min | 380 ng·h/mL | 100 ng/mL | 145 min | 494 ng·h/mL | 48.8 ng/mL | 157 min | 247 ng·h/mL | 67.8 ng/mL | 152 min | AUC(0-t) [11]: 383 ng·h/mL; Cmax [12]: 112 ng/mL; half-life [12]: 158 min; AUC(0-t) [12]: 602 ng·h/mL
